What follows are compounds tested against T1, apelin receptor (APJ) (Homo sapiens, UniProt P35414) (assay: In vitro apelin agonist activity (methods of Giddings et al., Apelin-13 as positive control)). Conditions: in vitro apelin agonist activity, methods of Giddings et al., Apelin-13 as positive control; read-out: EC50 (nM) Ave.
T1 sequence (P35414 1-380): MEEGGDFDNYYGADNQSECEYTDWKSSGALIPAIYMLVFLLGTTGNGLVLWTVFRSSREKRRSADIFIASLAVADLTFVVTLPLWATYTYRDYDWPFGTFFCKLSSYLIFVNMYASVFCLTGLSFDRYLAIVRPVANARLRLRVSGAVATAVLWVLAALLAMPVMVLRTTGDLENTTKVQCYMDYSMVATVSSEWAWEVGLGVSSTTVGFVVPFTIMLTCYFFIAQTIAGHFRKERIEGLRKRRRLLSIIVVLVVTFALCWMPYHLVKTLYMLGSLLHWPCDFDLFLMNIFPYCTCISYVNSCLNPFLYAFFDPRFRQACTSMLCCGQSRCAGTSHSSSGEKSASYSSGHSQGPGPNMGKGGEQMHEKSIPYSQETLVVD
Format: cell-based
Description: Characterization of the Apelin Agonist Activity of the Compounds
1:39-47, the contents of which are hereby incorporated by reference in its entirety. Using the methods described in Giddings et al. and Apelin-13 as a positive control.

First: O=C(O)C[C@H](CCN1CC2(CCC2(F)F)C1)NC(=O)c1cc(-c2ccccc2C(F)(F)F)n(C2CCCC2)n1 [compound 591, (3S)-3-({1-cyclopentyl-5-[2-(trifluoromethyl)phenyl]-1H-pyrazol-3-yl]formamido)-5-{5,5-difluoro-2-azaspiro[3.3]heptan-2-yl}pentanoic acid]
Second: O=C(O)C[C@H](CCN1CC(F)(F)C(F)(F)C1)NC(=O)c1cc(-c2ccccc2C(F)(F)F)n(C2CCCC2)n1 [compound 574, (3S)-3-({1-cyclopentyl-5-[2-(trifluoromethyl)phenyl]-1H-pyrazol-3-yl}formamido)-5-(3,3,4,4-tetrafluoropyrrolidin-1-yl)pentanoic acid]
The EC50 of the first is 1.9-fold lower: 528 nM for the first, 981 nM for the second. The first is the more potent here.

Going from Cc1cccc(C)c1-c1cc(C(=O)N[C@@H](CCN2CCCCC2)CC(=O)NC2CCC2)nn1C1CCCC1 [compound 371, (3S)-N-cyclobutyl-3-{[1-cyclopentyl-5-(2,6-dimethylphenyl)-1H-pyrazol-3-yl]formamido}-5-(piperidin-1-yl)pentanamide] to O=C(C[C@H](CCN1CCCCC1)NC(=O)c1cc(-c2ccccn2)n(C2CCCC2)n1)NC1CCC1 [compound 375, (3S)-N-cyclobutyl-3-{[1-cyclopentyl-5-(pyridin-2-yl)-1H-pyrazol-3-yl]formamido}-5-(piperidin-1-yl)pentanamide], the EC50 rises from 3840 nM to > 10000 nM. The first is the more potent here.

First: CCOc1cc(F)c(-c2cc(C(=O)N[C@@H](CCN3CCCCC3)CC(=O)NC3CCC3)nn2C2CCCC2)c(F)c1 [compound 355, (3S)-N-cyclobutyl-3-{[1-cyclopentyl-5-(4-ethoxy-2,6-difluorophenyl)-1H-pyrazol-3-yl]formamido}-5-(piperidin-1-yl)pentanamide]
Second: O=C(C[C@H](CCN1CCCCC1)NC(=O)c1cc(-c2c(OCC(F)(F)F)cccc2OCC(F)(F)F)n(C2CCCC2)n1)NC1CCC1 [compound 353]
The EC50 of the first is lower: 5080 nM for the first, > 10000 nM for the second. The first is the more potent here.

CCC(CC)n1nc(C(=O)N[C@@H](CCC2CCCCC2)CC(=O)O)cc1-c1c(OC)cccc1OC [compound 649, (3S)-5-cyclohexyl-3-{[5-(2,6-dimethoxyphenyl)-1-(pentan-3-yl)-1H-pyrazol-3-yl]formamido}pentanoic acid] and CCN(CC)CC[C@@H](CC(=O)OC(C)(C)C)NC(=O)c1cc(-c2c(OC)cccc2OC)n(C2CCCC2)n1 [compound 305, tert-butyl (3S)-3-{[1-cyclopentyl-5-(2,6-dimethoxyphenyl)-1H-pyrazol-3-yl]formamido}-5-(diethylamino)pentanoate] cannot be ordered by EC50: > 10000 nM for the first, > 10000 nM for the second.

COc1cccc(OC)c1-c1cc(C(=O)N[C@H]2CCN(Cc3ccncc3)C(=O)C2)nn1C1CCCC1 [compound 315, 1-cyclopentyl-5-(2,6-dimethoxyphenyl)-N-[(4S)-2-oxo-1-(pyridin-4-ylmethyl)piperidin-4-yl]-1H-pyrazole-3-carboxamide] and COc1cccc(OC)c1-c1cc(C(=O)N[C@@H](CCc2ccccc2)C(=O)Nc2nccs2)nn1C1CCCC1 [compound 396, (2S)-2-{[1-cyclopentyl-5-(2,6-dimethoxyphenyl)-1H-pyrazol-3-yl]formamido}-4-phenyl-N-(1,3-thiazol-2-yl)butanamide] cannot be ordered by EC50: > 10000 nM for the first, > 10000 nM for the second.

Compared with CC(C)(C)Cn1nc(C(=O)N[C@@H](CCN2CCCC(F)(F)C2)CC(=O)O)cc1-c1ccccc1C(F)(F)F [compound 568, (3S)-5-(3,3-difluoropiperidin-1-yl)-3-{[1-(2,2-dimethylpropyl)-5-[2-(trifluoromethyl)phenyl]-1H-pyrazol-3-yl]formamido}pentanoic acid], O=C(O)C[C@H](CCN1CCC(F)(F)C1)NC(=O)c1cc(-c2ccccc2C(F)(F)F)n(C2CCCC2)n1 [compound 485, (3S)-3-({1-cyclopentyl-5-[2-(trifluoromethyl)phenyl]-1H-pyrazol-3-yl}formamido)-5-(3,3-difluoropyrrolidin-1-yl)pentanoic acid] is lower in EC50: > 10000 nM for the first, 110 nM for the second. The second is the more potent here.

Going from O=C(C[C@H](CCN1CCC(F)(F)CC1)NC(=O)c1cc(-c2ccccc2C(F)(F)F)n(C2CCCC2)n1)NCc1ccccc1 [compound 439, (3S)-N-benzyl-3-({1-cyclopentyl-5-[2-(trifluoromethyl)phenyl]-1H-pyrazol-3-yl}formamido)-5-(4,4-difluoropiperidin-1-yl)pentanamide] to O=C(C[C@H](CCN1CCC(F)(F)CC1)NC(=O)c1cc(-c2ccccc2C(F)(F)F)n(C2CCCC2)n1)Nc1nccs1 [compound 430, (3S)-3-({1-cyclopentyl-5-[2-(trifluoromethyl)phenyl]-1H-pyrazol-3-yl}formamido)-5-(4,4-difluoropiperidin-1-yl)-N-(1,3-thiazol-2-yl)pentanamide], the EC50 falls from 920 nM to 17.5 nM (53-fold).

Compared with COc1cccc(OC)c1-c1cc(C(=O)N[C@@H](CCC2CCN(C)CC2)CC(=O)NC2CCC2)nn1C1CCCC1 [compound 421, (3S)-N-cyclobutyl-3-{[1-cyclopentyl-5-(2,6-dimethoxyphenyl)-1H-pyrazol-3-yl]formamido}-5-(1-methylpiperidin-4-yl)pentanamide], O=C(C[C@H](CCN1CCC(F)(F)C1)NC(=O)c1cc(-c2ccccc2C(F)(F)F)n(C2CCCC2)n1)NC1CCC1 [compound 480, (3S)-N-cyclobutyl-3-({1-cyclopentyl-5-[2-(trifluoromethyl)phenyl]-1H-pyrazol-3-yl}formamido)-5-(3,3-difluoropyrrolidin-1-yl)pentanamide] is 1200-fold lower in EC50: 3310 nM for the first, 2.76 nM for the second. The second is the more potent here.

Compared with COc1cccc(OC)c1-c1cc(C(=O)N[C@@H](CCc2ccccc2)CC(=O)NCc2nnn[nH]2)nn1C1CCCC1 [compound 383, (3S)-3-{[1-cyclopentyl-5-(2,6-dimethoxyphenyl)-1H-pyrazol-3-yl]formamido}-5-phenyl-N-(1H-1,2,3,4-tetrazol-5-ylmethyl)pentanamide], COc1cccc(OC)c1-c1cc(C(=O)N[C@@H](CCc2ccccc2)C(=O)NCc2nccs2)nn1C1CCCC1 [compound 388, (2S)-2-{[1-cyclopentyl-5-(2,6-dimethoxyphenyl)-1H-pyrazol-3-yl]formamido}-4-phenyl-N-(1,3-thiazol-2-ylmethyl)butanamide] is 13-fold lower in EC50: 5180 nM for the first, 399 nM for the second. The second is the more potent here.

First: O=C(O)C[C@@H](NC(=O)c1cc(-c2ccccc2C(F)(F)F)n(C2CCCC2)n1)C(=O)NC1CCOCC1 [compound 559, (3R)-3-({1-cyclopentyl-5-[2-(trifluoromethyl)phenyl]-1H-pyrazol-3-yl}formamido)-3-[(oxan-4-yl)carbamoyl]propanoic acid]
Second: O=C(O)C[C@H](CCN1CCC[C@@H](F)C1)NC(=O)c1cc(-c2ccccc2C(F)(F)F)n(C2CCCC2)n1 [compound 584, (3S)-3-({1-cyclopentyl-5-[2-(trifluoromethyl)phenyl]-1H-pyrazol-3-yl}formamido)-5-[(3R)-3-fluoropiperidin-1-yl]pentanoic acid]
The EC50 of the first is 3.2-fold higher: 596 nM for the first, 184 nM for the second.

First: Cc1nnc(C[C@H](CCN2CCCC(F)(F)C2)NC(=O)c2cc(-c3ccccc3Cl)n(C3CCCC3)n2)[nH]1 [compound 458, 5-(2-chlorophenyl)-1-cyclopentyl-N-[(2S)-4-(3,3-difluoropiperidin-1-yl)-1-(5-methyl-4H-1,2,4-triazol-3-yl)butan-2-yl]-1H-pyrazole-3-carboxamide]
Second: O=C(O)C[C@H](CCN1CCCC(F)(F)C1)NC(=O)c1cc(-c2cccnc2Cl)n(C2CCCC2)n1 [compound 468]
The EC50 of the first is 6.4-fold lower: 261 nM for the first, 1670 nM for the second.

Going from COCCN(C)C(=O)[C@H](CCc1ccccc1)NC(=O)c1cc(-c2ccccc2C(F)(F)F)n(C2CCCC2)n1 [compound 542, (2S)-2-({1-cyclopentyl-5-[2-(trifluoromethyl)phenyl]-1H-pyrazol-3-yl}formamido)-N-(2-methoxyethyl)-N-methyl-4-phenylbutanamide] to CN(C(=O)C[C@H](CCN1CCCC(F)(F)C1)NC(=O)c1cc(-c2ccccc2C(F)(F)F)n(C2CCCC2)n1)c1ncco1 [compound 451, (3S)-3-({1-cyclopentyl-5-[2-(trifluoromethyl)phenyl]-1H-pyrazol-3-yl}formamido)-5-(3,3-difluoropiperidin-1-yl)-N-methyl-N-(1,3-oxazol-2-yl)pentanamide], the EC50 falls from 105 nM to 27 nM (3.9-fold). The second is the more potent here.

First: O=C(N[C@@H](CCN1CCCC(F)(F)C1)Cc1nnn[nH]1)c1cc(-c2ncccc2C(F)(F)F)n(C2CCCC2)n1 [compound 641]
Second: O=C(C[C@H](CCN1CCCC(F)(F)C1)NC(=O)c1cc(-c2ccccc2C(F)(F)F)n(C2CCCC2)n1)Nc1ncco1 [compound 427, (3S)-3-({1-cyclopentyl-5-[2-(trifluoromethyl)phenyl]-1H-pyrazol-3-yl}formamido)-5-(3,3-difluoropiperidin-1-yl)-N-(1,3-oxazol-2-yl)pentanamide]
The EC50 of the first is 3.2-fold higher: 27 nM for the first, 8.5 nM for the second.

Compared with O=C(O)C[C@H](CCN1CCCC(F)(F)C1)NC(=O)c1nc(-c2cccnc2C(F)(F)F)n(C2CCCC2)n1 [compound 525], Cc1cnc(NC(=O)C[C@H](CCN2CCC(F)(F)CC2)NC(=O)c2cc(-c3ccccc3C(F)(F)F)n(C3CCCC3)n2)s1 [compound 436, (3S)-3-({1-cyclopentyl-5-[2-(trifluoromethyl)phenyl]-1H-pyrazol-3-yl]formamido)-5-(4,4-difluoropiperidin-1-yl)-N-(5-methyl-1,3-thiazol-2-yl)pentanamide] is lower in EC50: > 10000 nM for the first, 58 nM for the second. The second is the more potent here.

CN(CC[C@@H](CC(=O)NC1CCC1)NC(=O)c1cc(-c2ccccc2C(F)(F)F)n(C2CCCC2)n1)C1(C)CCCC1 [compound 511, (3S)-N-cyclobutyl-3-({1-cyclopentyl-5-[2-(trifluoromethyl)phenyl]-1H-pyrazol-3-yl}formamido)-5-[methyl(1-methylcyclopentyl)amino]pentanamide] was tested, and the EC50 was 35 nM.

Source: patent US11535630B2, “Apelin receptor (APJ) agonists and uses thereof” (Research Triangle Institute, priority 2015, dated 2022)
